Measurements: patent US20250214999A1, “HETEROCYCLIC GLP-1 AGONISTS” (Gasherbrum Bio, Inc., priority 2020, published 2025)

Target: GLP-1 Receptor (Homo sapiens (Human), UniProt P43220)
Assay: GLP-1R agonist cAMP stimulation assay (HEK293/GLP1R/CRE-LUC cells)
Format: cell-based
Conditions: 30 min incubation, read-out: GLP1R cAMP Stimulation DR: EC50
Description: Activation of GLP-1 receptor is known to stimulate cyclic AMP (cAMP) production in cells which indicates primary coupling to the Gαs subunit of the G protein heterotrimeric complex.
To optimize functional activity directed toward Gαs coupling, a HEK293/CRELuc cell line developed by HDB stably expressing the GLP-1 Receptor was used. 200× concentration of compound working solutions were prepared (Agilent Technologies Bravo) with 1/2 log serial dilution in 384-well Echo LDV plate (Labcyte, Cat #LP-0200). 50 nL/well 200× concentration of compound working solutions were moved to 384-well white low volume plate (Greiner, Cat #784075) using Labcyte ECHO550. 1×10^5 cells/mL HEK293/GLP1R/CRE-LUC (HD Biosciences) cell suspensions prepared with assay buffer [DPBS containing 0.5 mM IBMX (Sigma,Cat #I5879) and 0.1% BSA (GENVIEW, Cat #FA016-100 g)], 10 uL cell suspensions were added to each well of previous generated assay plate which already contains 50 nl compound at 200× concentration using ThermoFisher Multidrop Combi (1000cells/well). Seal the plate and incubate at 37° C. with 5% CO2 for 30 min.
After incubation the CAMP assay signal was generated using cAMP dynamic 2 Kit (Cisbio). 5 μL cAMP-d2 working solution was added to each well, followed with 5 μL Anti-cAMP antibody-cryptate working solution added to each well using ThermoFisher Multidrop Combi. Incubate at room temperature for 1 hour protected from light. Read the fluorescence at 665 and 615 nm with Reader PerkinElmer En Vision.

Chain of GLP-1 Receptor (P43220 24-463): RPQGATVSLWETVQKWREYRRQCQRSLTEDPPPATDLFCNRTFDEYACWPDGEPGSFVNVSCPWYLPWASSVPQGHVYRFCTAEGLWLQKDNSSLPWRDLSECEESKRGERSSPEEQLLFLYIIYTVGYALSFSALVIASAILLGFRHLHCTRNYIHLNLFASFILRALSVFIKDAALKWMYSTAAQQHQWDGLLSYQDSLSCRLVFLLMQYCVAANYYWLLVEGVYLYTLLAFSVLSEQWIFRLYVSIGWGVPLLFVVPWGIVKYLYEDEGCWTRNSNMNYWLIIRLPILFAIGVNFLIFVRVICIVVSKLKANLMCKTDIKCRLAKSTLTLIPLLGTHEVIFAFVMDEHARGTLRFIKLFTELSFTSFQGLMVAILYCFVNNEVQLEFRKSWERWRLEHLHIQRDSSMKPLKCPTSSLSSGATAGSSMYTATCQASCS

| SMILES | EC50 |
| --- | --- |
| O=C(O)c1ccc2nc(CN3CCN(c4cccc5c4OCC(c4ccc(Cl)cc4F)C5)CC3)n(C[C@@H]3CCO3)c2n1 (stereo partly drawn) [Compound 121a, 2-((4-(3-(4-Chloro-2-fluorophenyl)chroman-8-yl)piperazin-1-yl)methyl)-3-(((S)oxetan-2-yl)methyl)-3H-imidazo[4,5-b]pyridine-5-carboxylic acid] | 20 to 200 nM |
| O=C(O)c1ccc2nc(CN3CCN(c4cccc5c4CCC(c4ccc(Cl)cc4F)O5)CC3)n(C[C@@H]3CCO3)c2n1 (stereo partly drawn) [Compound 123a, 2-((4-(2-(4-Chloro-2-fluorophenyl)chroman-5-yl)piperazin-1-yl)methyl)-3-((S)oxetan-2-ylmethyl)-3H-imidazo[4,5-b]pyridine-5-carboxylic acid] | 20 to 200 nM |
| O=C(O)c1ccc2nc(CN3CCC(c4cccc5c4OCC(c4ccc(Cl)cc4F)N5)CC3)n(C[C@@H]3CCO3)c2n1 (stereo partly drawn) [Compound 124a, 2-((4-(3-(4-chloro-2-fluorophenyl)-3,4-dihydro-2H-benzo[b][1,4]oxazin-8-yl)piperidin-1-yl)methyl)-3-(((S)-oxetan-2-yl)methyl)-3H-imidazo[4,5-b]pyridine-5-carboxylic acid] | 0.2 to 20 nM |
| O=C(O)c1ccc2nc(CN3CCC(c4cccc5c4OCC(c4ccccc4F)N5)CC3)n(C[C@@H]3CCO3)c2n1 (stereo partly drawn) [Compound 125a, 2-((4-(3-(2-fluorophenyl)-3,4-dihydro-2H-benzo[b][1,4]oxazin-8-yl)piperidin-1-yl)methyl)-3-(((S)-oxetan-2-yl)methyl)-3H-imidazo[4,5-b]pyridine-5-carboxylic acid] | 20 to 200 nM |
| O=C(O)c1ccc2nc(CN3CCC(c4cccc5c4CCN(c4ccc(Cl)cc4)C5)CC3)n(C[C@@H]3CCO3)c2n1 [Compound 126a] | > 200 nM |
| CC1(c2ccc(Cl)cc2F)COc2c(cccc2C2CCN(Cc3nc4ccc(C(=O)O)nc4n3C[C@@H]3CCO3)CC2)O1 (stereo partly drawn) [Compound 127a, 2-((4-(2-(4-chloro-2-fluorophenyl)-2-methyl-2,3-dihydrobenzo[b][1,4]dioxin-5-yl)piperidin-1-yl)methyl)-3-((S)-oxetan-2-ylmethyl)-3H-imidazo[4,5-b]pyridine-5-carboxylic acid] | 0.2 to 20 nM |

Further lines, results first:

| EC50 | SMILES |
| --- | --- |
| ≤ 0.2 nM | O=C(O)c1ccc2nc(CN3CCC(c4cccc5c4OCC(c4ccc(C(F)(F)F)cc4)O5)CC3)n(C[C@@H]3CCO3)c2n1 (stereo partly drawn) [Compound 119a, 2-((4-(2-(4-(trifluoromethyl)phenyl)-2,3-dihydrobenzo[b][1,4]dioxin-5-yl)piperidin-1-yl)methyl)-3-(((S)-oxetan-2-yl)methyl)-3H-imidazo[4,5-b]pyridine-5-carboxylic acid] |
| 0.2 to 20 nM | O=C(O)c1ccc2nc(CN3CCC(c4cccc5c4OC[C@@H](c4ccc(Cl)cc4F)O5)CC3)n(C[C@@H]3CCO3)c2c1 [Compound 120b, 2-((4-((R)-2-(4-chloro-2-fluorophenyl)-2,3-dihydrobenzo[b][1,4]dioxin-5-yl)piperidin-1-yl)methyl)-1-((S)-oxetan-2-ylmethyl)-1H-benzo[d]imidazole-6-carboxylic acid] |
| 20 to 200 nM | O=C(O)c1ccc2nc(CN3CCC(c4cccc5c4OC[C@H](c4ccc(Cl)cc4F)O5)CC3)n(C[C@@H]3CCO3)c2c1 [Compound 120c, 2-((4-((S)-2-(4-chloro-2-fluorophenyl)-2,3-dihydrobenzo[b][1,4]dioxin-5-yl)piperidin-1-yl)methyl)-1-((S)-oxetan-2-ylmethyl)-1H-benzo[d]imidazole-6-carboxylic acid] |
| 20 to 200 nM | O=C(O)c1ccc2nc(CN3CCC(c4cccc5c4OCC(c4ccccc4F)C5)CC3)n(C[C@@H]3CCO3)c2n1 (stereo partly drawn) [Compound 122a, 2-((4-(3-(2-fluorophenyl) Chroman-8-yl)piperidin-1-yl)methyl)-3-(((S)-oxetan-2-yl)methyl)-3H-imidazo[4,5-b]pyridine-5-carboxylic acid] |
| 0.2 to 20 nM | CC1(c2ccc(Cl)cc2)COc2c(cccc2C2CCN(Cc3nc4ccc(C(=O)O)nc4n3C[C@@H]3CCO3)CC2)O1 (stereo partly drawn) [Compound 128a, 2-((4-(2-(4-chlorophenyl)-2-methyl-2,3-dihydrobenzo[b][1,4]dioxin-5-yl)piperidin-1-yl)methyl)-3-((S)-oxetan-2-ylmethyl)-3H-imidazo[4,5-b]pyridine-5-carboxylic acid] |
| ≤ 0.2 nM | N#Cc1ccc([C@@H]2COc3c(cccc3C3CCN(Cc4nc5ccc(C(=O)O)cc5n4C[C@@H]4CCO4)CC3)O2)cc1 [Compound 129a, 2-((4-((R)-2-(4-Cyanophenyl)-2,3-dihydrobenzo[b][1,4]dioxin-5-yl)piperidin-1-yl)methyl)-1-(((S)-oxetan-2-yl)methyl)-1H-benzo[d]imidazole-6-carboxylic acid] |
| ≤ 0.2 nM | O=C(O)c1ccc2nc(CN3CCC(c4cccc5c4OC(c4ccc(Cl)cc4F)CO5)CC3)n(C[C@@H]3CCO3)c2n1 (stereo partly drawn) [Compound 130a, 2-((4-(3-(4-chloro-2-fluorophenyl)-2,3-dihydrobenzo[b][1,4]dioxin-5-yl)piperidin-1-yl)methyl)-3-(((S)-oxetan-2-yl)methyl)-3H-imidazo[4,5-b]pyridine-5-carboxylic acid] |

Tested on: not listed separately
Assay: Nonhuman primate (NHP) pharmacokinetics (PK) study
Format: in vivo, cynomolgus monkey
Conditions: cynomolgus monkey, plasma, 1 mg/kg; male NHP, oral (PO), Dose 1
Description: Pharmacokinetics (PK) study was conducted on male NHP (e.g. cynomolgus monkey) by two delivery routes intravenous (IV) and/or oral gavage (PO). NHP in IV route (n=3) were free access to food and water. NHP in PO route (n=3) were fasted overnight and fed at 4 hrs post dosing. Test article was formulated in solution for IV route and solution or suspension for PO route, respectively.
On the day of experiment, test article was administered via vein (e.g. cephalic vein) injection (commonly at 0.2 to 1 mg/kg and 1 to 2 mL/kg) for IV route or via oral gavage (commonly at 1 to 100 mg/kg and 2 to 10 mL/kg) for PO route, respectively.
Blood samples were collected via serial bleeding at ˜8 time points from 0.083 to 24 hours post dose. Approximate 500 μL of blood/time point was collected into EDTA-K2 tube via cephalic or saphenous vein. Blood samples were put on wet ice and centrifuged to obtain plasma samples and plasma samples were submitted to LCMS/MS for sample analysis.
Pharmacokinetics parameters, including maximum plasma concentration (Cmax), time to reach maximum plasma concentration (Tmax), area under the curve (AUC0-4) and oral bioavailability (F%), etc., were calculated by non-compartmental model using WinNonlin.
Exemplary compounds of Formula I (e.g., certain compounds of Formula IB (e.g., Formula IB-1)) were tested using the protocol above. Reference compound REF1 was tested as a control compound.

| SMILES | Tmax |
| --- | --- |
| N#Cc1ccc(COc2cccc(C3CCN(Cc4nc5ccc(C(=O)O)cc5n4C[C@@H]4CCO4)CC3)n2)c(F)c1 [REF1] | 5.33 h |

Same assay, conditions: cynomolgus monkey, plasma; male NHP, oral bioavailability

| SMILES | bioavailability |
| --- | --- |
| N#Cc1ccc(COc2cccc(C3CCN(Cc4nc5ccc(C(=O)O)cc5n4C[C@@H]4CCO4)CC3)n2)c(F)c1 [REF1] | 3.14% |

Same assay, conditions: male NHP, oral (PO), Dose 1

| SMILES | AUC0-24 h | Cmax |
| --- | --- | --- |
| N#Cc1ccc(COc2cccc(C3CCN(Cc4nc5ccc(C(=O)O)cc5n4C[C@@H]4CCO4)CC3)n2)c(F)c1 [REF1] | 362 arbitrary unit | 36.0 arbitrary unit |
